According to patent US20090264415A2 (priority 2004, published 2009):
Where two headings read alike, the source gives them in different places.

How the values were obtained:
[1] = tested on: phosphodiesterase-4 (PDE-4) extract from U937 cells; experiment: Phosphodiesterase-4 inhibiting activity (isotopic two-step method); assay type: biochemical; details: @ 0.03 μM
[2] = tested on: peripheral blood mononuclear cells (PBMC) stimulated with allogeneic PBMC or EBV-transformed human B cells (RPMI1788); experiment: Mixed lymphocyte reaction (MLR) assay; assay type: cell-based; details: 50% suppression of the MLR, [3H]-thymidine incorporation, read-out: MLR
In short: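 Responder PBMC co-cultured in triplicate with 30 Gy-irradiated allogeneic PBMC or RPMI1788 B cells plus compound (DMSO stock 10 mM, diluted in medium). After 5 days at 37° C, 1 μCi [3H]-thymidine added for 16 h more; incorporated cpm counted and proliferation inhibition calculated.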

[3] = tested on: production of human TNF-α by PBMC in response to LPS; experiment: TNF-α assay (LPS-stimulated PBMC, sandwich ELISA); assay type: cell-based; details: LPS 1 μg/ml, 72 hours, read-out: TNF α
Protocol: Peripheral blood mononuclear cells (herein referred as PBMC), in response to stimulation by lipopolysaccharide (hereinafter LPS), a gram-negative bacterial endotoxin, produce various […], in particular human TNF-α. Inhibition of the activation of PBMC can therefore be measured by the level of suppression of the production of TNF-α by PBMC in response to stimulation by LPS. Inhibition measurement was performed as follows: PBMC were isolated from heparinized peripheral blood by density gradient centrifugation over Lymphoprep (commercially available from Nycomed, Norway). LPS was then added to the PMBC suspension in complete medium (10^6 cells/ml) at a final concentration of 1 μg/ml. The pteridine derivative to be tested was added at different concentrations (0.1 μM, 1 μM and 10 μM) and the cells were incubated at 37° C. for 72 hours in 5% CO2. The supernatants were collected, then TNF-α concentrations were measured with respectively an anti-TNF-α antibody in a sandwich ELISA (Duo Set ELISA human TNFα, commercially available from R&D Systems, United Kingdom). The colorimetric reading of the ELISA was measured by a Multiskan RC plate reader (commercially available from ThermoLabsystems, Finland) at 450 nm (reference wavelength: 690 nm). Data analysis was performed with Ascent software 2.6. (also from ThermoLabsystems, Finland): a standard curve (recombinant human TNFα) was drawn and the amount (pg/ml) of each sample on the standard curve was determined. The % suppression of human TNFα production by the pyrido[3,2-d]pyrimidine derivatives of the invention was calculated using the formula: [formula]

## COc1ccc(-c2ccc3nc(N)nc(N4CCN(C(=O)c5ccco5)CC4)c3n2)cc1OC [Example 51, 2-amino-4-[1-(2-furoyl)-piperazin-1-yl]-6-(3,4-dimethoxyphenyl)-pyrido[3,2-d]pyrimidine]
[1]
  PDE-4 (% inhibition): 63% @ 0.03 μM
[2]
  IC50: 30 nM

## Cc1cccc(NC(=O)N2CCN(c3nc(N)nc4ccc(-c5ccc6c(c5)OCO6)nc34)CC2)c1 [Example 196, 2-amino-4-[N-(3-methyl-phenyl-carbamoyl)-piperazin-1-yl]-6-(3,4-methylenedioxyphenyl)-pyrido[3,2-d]pyrimidine]
[2]; Homo sapiens, RPMI-1788
  IC50: 30 nM
[3]; Homo sapiens, PBMC
  IC50: 5300 nM

## CC(=O)N1CCN(c2nc(N)nc3ccc(-c4ccc5c(c4)OCCO5)nc23)CC1 [Example 199, 2-amino-4-[N-acetyl-piperazin-1-yl]-6-(1,4-benzodioxane)-pyrido[3,2-d]pyrimidine]
[2]; Homo sapiens, RPMI-1788
  IC50: 4800 nM
[3]; Homo sapiens, PBMC
  IC50: 2900 nM

## Nc1nc(N2CCN(CC(=O)Nc3nccs3)CC2)c2nc(-c3ccc4c(c3)OCCO4)ccc2n1 [Example 201]
[2]; Homo sapiens, RPMI-1788
  IC50: 800 nM
[3]; Homo sapiens, PBMC
  IC50: 3400 nM

## Nc1nc(N2CCOCC2)c2nc(-c3ccccc3Br)ccc2n1 [Example 210, 2-amino-4-morpholino-6-(2-bromo-phenyl)-pyrido[3,2-d]pyrimidine]
[2]; Homo sapiens, RPMI-1788
  IC50: 1800 nM
[3]; Homo sapiens, PBMC
  IC50: 7200 nM

## COc1ccc(-c2ccc3ncnc(N4CCN(C(=O)Nc5cccc(Cl)c5)CC4)c3n2)cc1OCC1CC1 [Example 215, 4-[N-(3-chloro-phenylcarbamoyl)-piperazin-1-yl]-6-(3-cyclopropylmethoxy-4-methoxy-phenyl)-pyrido[3,2-d]pyrimidine]
[2]; Homo sapiens, RPMI-1788
  IC50: 200 nM
[3]; Homo sapiens, PBMC
  IC50: 800 nM

## COc1ccc(-c2ccc3nc(N)nc(N4CC[C@H](N)C4)c3n2)cc1OC [Example 219, 2-amino-4-[(S)-3-(amino)pyrrolidine]-6-(3,4-dimethoxyphenyl)-pyrido[3,2-d]pyrimidine]
[2]; Homo sapiens, RPMI-1788
  IC50: 5500 nM
[3]; Homo sapiens, PBMC
  IC50: 1900 nM

## COc1ccc(-c2ccc3nc(N)nc(N4CC[C@H](NC(=O)COc5ccc(Cl)cc5)C4)c3n2)cc1OC [Example 220]
[2]; Homo sapiens, RPMI-1788
  IC50: 4300 nM
[3]; Homo sapiens, PBMC
  IC50: 1800 nM

## COc1ccc(-c2ccc3nc(N)nc(SC)c3n2)cc1OC [Example 223, 2-amino-4-thiomethyl-6-(3,4-dimethoxyphenyl)-pyrido[3,2-d]pyrimidine]
[2]
  IC50: 900 nM
[3]
  IC50: 800 nM

## Nc1nc(N2CCOCC2)c2nc(-c3ccco3)ccc2n1 [Example 232, 2-amino-4-morpholino-6-(2-furan)-pyrido[3,2-d]pyrimidine]
[2]
  IC50: 5300 nM
[3]
  IC50: 5300 nM

## Nc1nc(N2CCOCC2)c2nc(-c3ccsc3)ccc2n1 [Example 233, 2-amino-4-morpholino-6-(3-thiophene)-pyrido[3,2-d]pyrimidine]
[2]
  IC50: 4400 nM
[3]
  IC50: 3700 nM

## Nc1nc(N2CCOCC2)c2nc(-c3ccncc3)ccc2n1 [Example 234, 2-amino-4-morpholino-6-(4-pyridinyl)-pyrido[3,2-d]pyrimidine]
[2]; Homo sapiens, RPMI-1788
  IC50: 700 nM
[3]; Homo sapiens, PBMC
  IC50: 500 nM

## Cc1ccc(-c2ccc3nc(N)nc(N4CCOCC4)c3n2)s1 [Example 235, 2-amino-4-morpholino-6-(5-methyl-2-thienyl)-pyrido[3,2-d]pyrimidine]
[2]; Homo sapiens, RPMI-1788
  IC50: 3400 nM
[3]; Homo sapiens, PBMC
  IC50: 1800 nM

## Nc1nc(N2CCOCC2)c2nc(-c3ccc4[nH]ccc4c3)ccc2n1 [Example 237, 2-amino-4-morpholino-6-(5-indolyl)-pyrido[3,2-d]pyrimidine]
[2]; Homo sapiens, RPMI-1788
  IC50: 800 nM
[3]; Homo sapiens, PBMC
  IC50: 2600 nM

## Nc1nc(N2CCOCC2)c2nc(-c3cccs3)ccc2n1 [Example 238, 2-amino-4-morpholino-6-(2-thienyl)-pyrido[3,2-d]pyrimidine]
[2]; Homo sapiens, RPMI-1788
  IC50: 800 nM
[3]; Homo sapiens, PBMC
  IC50: 2800 nM

## Cc1csc(-c2ccc3nc(N)nc(N4CCOCC4)c3n2)c1 [Example 239, 2-amino-4-morpholino-6-(4-methyl-2-thienyl)-pyrido[3,2-d]pyrimidine]
[2]; Homo sapiens, RPMI-1788
  IC50: 4600 nM
[3]; Homo sapiens, PBMC
  IC50: 4900 nM

## Nc1nc(N2CCOCC2)c2nc(-c3cccnc3)ccc2n1 [Example 240, 2-amino-4-morpholino-6-(3-pyridinyl)-pyrido[3,2-d]pyrimidine]
[2]; Homo sapiens, RPMI-1788
  IC50: 1300 nM
[3]; Homo sapiens, PBMC
  IC50: 700 nM

## Nc1nc(N2CCOCC2)c2nc(-c3ccc(Cl)s3)ccc2n1 [Example 241, 2-amino-4-morpholino-6-(5-chloro-2-thienyl)-pyrido[3,2-d]pyrimidine]
[2]; Homo sapiens, RPMI-1788
  IC50: 2200 nM
[3]; Homo sapiens, PBMC
  IC50: 5400 nM

## Nc1nc(N2CCOCC2)c2nc(-c3ccc(F)c(F)c3)ccc2n1 [Example 243, 2-amino-4-morpholino-6-(3,4-difluorophenyl)-pyrido[3,2-d]pyrimidine]
[2]; Homo sapiens, RPMI-1788
  IC50: 2300 nM
[3]; Homo sapiens, PBMC
  IC50: 6000 nM

## Cc1cc(-c2ccc3nc(N)nc(N4CCOCC4)c3n2)ccc1F [Example 244, 2-amino-4-morpholino-6-(4-fluoro-3-methylphenyl)-pyrido[3,2-d]pyrimidine]
[2]; Homo sapiens, RPMI-1788
  IC50: 3800 nM
[3]; Homo sapiens, PBMC
  IC50: 7200 nM

## Cc1noc(C)c1-c1ccc2nc(N)nc(N3CCOCC3)c2n1 [Example 246, 2-amino-4-morpholino-6-[4-(3,5-dimethylisoxazolyl)]-pyrido[3,2-d]pyrimidine]
[2]
  IC50: 5500 nM
[3]
  IC50: 1600 nM

## COc1ccc(-c2ccc3nc(N)nc(N4CCCN(C(=O)Nc5cccc(C)c5)CC4)c3n2)cc1OC [Example 250, 2-amino-4-[(N-3-methylphenylcarbamoyl)-homopiperazin-1-yl]-6-(3,4-dimethoxyphenyl)-pyrido[3,2-d]pyrimidine]
[2]; Homo sapiens, RPMI-1788
  IC50: 8.5 nM
[3]; Homo sapiens, PBMC
  IC50: 600 nM

## COc1ccc(-c2ccc3nc(N)nc(NC4CCN(C(=O)OC(C)(C)C)CC4)c3n2)cc1OC [Example 255, 2-amino-4-[(1-Boc-piperidin-4-yl)amino]-6-(3,4-dimethoxyphenyl)-pyrido[3,2-d]pyrimidine]
[2]; Homo sapiens, RPMI-1788
  IC50: 60 nM
[3]; Homo sapiens, PBMC
  IC50: 40 nM

## COc1ccc(-c2ccc3nc(N)nc(NC4CCCN(C(=O)OC(C)(C)C)C4)c3n2)cc1OC (stereo not drawn) [Example 257, 2-amino-4-[(1-Boc-piperidin-3-yl)amino]-6-(3,4-dimethoxyphenyl)-pyrido[3,2-d]pyrimidine]
[2]; Homo sapiens, RPMI-1788
  IC50: 300 nM
[3]; Homo sapiens, PBMC
  IC50: 600 nM

## COc1ccc(-c2ccc3nc(N)nc(NC4CCCN(C(=O)OCc5ccccc5)C4)c3n2)cc1OC (stereo not drawn) [Example 258, 2-amino-4-[(1-Cbz-piperidin-3-yl)amino]-6-(3,4-dimethoxyphenyl)-pyrido[3,2-d]pyrimidine]
[2]; Homo sapiens, RPMI-1788
  IC50: 900 nM
[3]; Homo sapiens, PBMC
  IC50: 300 nM

## COc1ccc(-c2ccc3nc(N)nc(NCCCNC(=O)Nc4cccc(C)c4)c3n2)cc1OC [Example 262, 2-amino-4-[(3-methylphenylcarbamoyl)-3-aminopropane-amino-1-N-yl]-6-(3,4-dimethoxyphenyl)-pyrido[3,2-d]pyrimidine]
[2]; Homo sapiens, RPMI-1788
  IC50: 500 nM
[3]; Homo sapiens, PBMC
  IC50: 6900 nM

## COc1ccc(-c2ccc3nc(N)nc(NC4CCN(C(=O)Nc5cccc(C)c5)CC4)c3n2)cc1OC [Example 263]
[2]; Homo sapiens, RPMI-1788
  IC50: 70 nM
[3]; Homo sapiens, PBMC
  IC50: 500 nM

## COc1ccc(-c2ccc3nc(N)nc(NC4CCCN(C(=O)Nc5cccc(C)c5)C4)c3n2)cc1OC (stereo not drawn) [Example 264, 2-amino-4-[(3-methylphenylcarbamoylpiperidin-3-yl)amino)-6-(3,4-dimethoxyphenyl]-pyrido[3,2-d]pyrimidine]
[2]; Homo sapiens, RPMI-1788
  IC50: 500 nM
[3]; Homo sapiens, PBMC
  IC50: 1800 nM

## COc1ccc(-c2ccc3nc(N)nc(NCCNC(=O)COc4ccc(Cl)cc4)c3n2)cc1OC [Example 265]
[2]; Homo sapiens, RPMI-1788
  IC50: 300 nM
[3]; Homo sapiens, PBMC
  IC50: 3900 nM

## COc1ccc(-c2ccc3nc(N)nc(NCCCNC(=O)COc4ccc(Cl)cc4)c3n2)cc1OC [Example 266, 2-amino-4-[3-N-(4-chlorophenoxy-acetyl)-3-amino-propane-amine-1-N-yl]-6-(3,4-dimethoxyphenyl)-pyrido[3,2-d]pyrimidine]
[2]; Homo sapiens, RPMI-1788
  IC50: 700 nM
[3]; Homo sapiens, PBMC
  IC50: 900 nM

## COc1ccc(-c2ccc3nc(N)nc(N4CC[C@@H](NC(=O)COc5ccc(Cl)cc5)C4)c3n2)cc1OC [Example 267]
[2]; Homo sapiens, RPMI-1788
  IC50: 700 nM
[3]; Homo sapiens, PBMC
  IC50: 2500 nM

## COc1ccc(-c2ccc3nc(N)nc(N4CCCC(C(=O)NCC(C)C)C4)c3n2)cc1OC (stereo not drawn) [Example 268, 2-amino-4-[(3-carboxylic acid isobutylamide)-piperidin-1-yl]-6-(3,4-dimethoxyphenyl)-pyrido[3,2-d]pyrimidine]
[2]; Homo sapiens, RPMI-1788
  IC50: 500 nM
[3]; Homo sapiens, PBMC
  IC50: 700 nM

## COc1ccc(-c2ccc3nc(N)nc(NCC(=O)N4CCN(Cc5ccccc5)CC4)c3n2)cc1OC [Example 271, 2-amino-4-[2-(4-benzylpiperazin-1-yl)-2-oxo-ethane-amino]-6-(3,4-dimethoxyphenyl)-pyrido[3,2-d]pyrimidine]
[2]; Homo sapiens, RPMI-1788
  IC50: 700 nM
[3]; Homo sapiens, PBMC
  IC50: 500 nM
